This note sets out measurements from patent publication US8314150B2, “Kinase protein binding inhibitors” (priority 2008, dated 2012).

Molecules are shown by their SMILES.

In the assay the test system is FAK wildtype fibroblasts (MEFs). The experiment in a line: MTT cell viability assay, FAK wildtype vs FAK null fibroblasts. The assay is classed as cell-based. To be noted: 72 hours, p<0.05. On the procedure: The 3-(4,5-dimethylthiazol-2-yl)-5-(3-carboxymethoxyphenyl)-2-(4-sulfophenyl)-2H-tetrazolium compound from Promega Viability kit (Madison, Ill.) was added, and the cells were incubated at 37° C. for 1-2 hours. The optical density on 96-plate was analyzed with a microplate reader at 490 nm to determine cell viability. In addition, cells were stained with trypan blue after 24 hours of treatment with Y15 and the percent of cells that stained positive were determined with a hemacytometer. Cell adhesion assay—The poly-L-Lysine or Collagen (5 μg/ml) coated 96-well plates were blocked with the blocking buffer (medium with 0.5% BSA) for 1 hour at 37 C. […] Then 2% SDS was added to the dried plated and OD at 590 nm was measured for detecting cell adhesion. […] Protein concentrations were determined using a Bio-Rad Kit. The boiled samples were loaded on Ready SDS-10% PAGE gels (Bio Rad, Inc) and used for Western blot analysis with the protein-specific antibody. […] Detachment Assay—Cells were plated with and without inhibitors for 24 hours, and detached and attached cells were counted in a hemocytometer. We calculated the percent of detachment by dividing the number of detached cells by the total number of cells. The percent of detached cells was calculated in three independent experiments. […] For each experiment 300 cells per treatment were counted. […]
A general note: Formazan colour is commonly taken as a measure of viable cells.

Turning to `Cl.Cl.Cl.Cl.Nc1cc(N)c(N)cc1N` [Y15, 1,2,4,5-benzenetetraamine tetrahydrochloride], the “dose from which viability of FAK wildtype fibroblasts decreased compared to FAK null fibroblasts” value was 0.1 µM.
